Reference: EP1806348A2, “Pyrido (2,3-D)Pyrimidines as inhibitors of cellular proliferation” (Warner-Lambert Company LLC, priority 1997, dated 1998)

Experiments:
Assay type in all cases: biochemical
[1] = molecular target: cdk2/cyclinE (Homo sapiens, UniProt P24941); assay: Cyclin-dependent kinase assay (cdk2/cyclinE); conditions: Table 1; read-out: cdk2/E IC50
Protocol: (§1) All components except the ATP were added to the wells, and the plate was placed on a plate mixer for 2 minutes. […] The reaction was terminated by addition of 0.1 mL of 20% TCA. The plate was kept at 4°C for at least 1 hour to allow the substrate to precipitate. The wells were then washed five times with 0.2 mL of 10% TCA and ^32P incorporation determined with a beta plate counter (Wallac Inc., Gaithersburg, MD).

[2] = molecular target: cdk4/D (Homo sapiens, UniProt P11802); assay: Cyclin-dependent kinase 4 (cdk4) enzyme assay, 32P incorporation into retinoblastoma; conditions: Table 1; 25 µM ATP, retinoblastoma substrate
Protocol: A typical assay, for instance, measures inhibitory activity against the cyclin D dependent kinase 4 enzyme (cdk4/D). […] The cdk 4 assay was carried out as follows.
as §1, with “trichloroacetic acid (TCA).” for “TCA.”, “incorporation was” for “incorporation”

[3] = molecular target: T1, human FGF-1 (flg) receptor tyrosine kinase (Homo sapiens, UniProt P11362); assay: FGF receptor tyrosine kinase assay; conditions: Table 3
T1 construct: amplify a fragment of DNA that codes for the intracellular tyrosine kinase domain; made in house; host or cells: SF9 insect cells (baculovirus)
Excerpt: (§2) Full-length cDNAs for the mouse PDGF-β and human FGF-1 (flg) receptor tyrosine kinases were obtained from J. Escobedo and prepared as described in J. Biol. Chem., 1991;262:1482-1487. PCR primers were designed to amplify a fragment of DNA that codes for the intracellular tyrosine kinase domain. The fragment was inserted into a baculovirus vector, cotransfected with AcMNPV DNA, and the recombinant virus isolated. SF9 insect cells were infected with the virus to overexpress the protein, and the cell lysate was used for the assay. Assays were performed in 96-well plates (100 µL/incubation/well), and conditions were optimized to measure the incorporation of ^32P from γ^32P-ATP into a glutamate-tyrosine co-polymer substrate. Briefly, to each well was added 82.5 µL of incubation buffer containing 25 mM Hepes (pH 7.0), 150 mM NaCl, 0.1% Triton X-100, 0.2 mM PMSF, 0.2 mM Na3VO4, 10 mM MnCl2, and 750 µg/mL of Poly (4:1) glutamate-tyrosine followed by […] of inhibitor and 5 µL of enzyme lysate (7.5 µg/µL FGF-TK or 6.0 µg/µL PDGF-TK) to initiate the reaction. Following a 10 minute incubation at 25°C, […] of γ^32P-ATP (0.4 µCi plus 50 µM ATP) was added to each well, and samples were incubated for an additional 10 minutes at 25°C. The reaction was terminated by the addition of 100 µL of 30% trichloroacetic acid (TCA) containing 20 mM sodium pyrophosphate and precipitation of material onto glass fiber mats (Wallac). Filters were washed three times with 15% TCA containing 100 mM sodium pyrophosphate, and the radioactivity retained on the filters counted in a Wallac 1250 Betaplate reader. Nonspecific activity was defined as radioactivity retained on the filters following incubation of samples with buffer alone (no enzyme). Specific enzymatic activity (enzyme plus buffer) was defined as total activity minus nonspecific activity. […]

[4] = molecular target: cdc2/cyclinB (Homo sapiens, UniProt P06493); assay: Cyclin-dependent kinase assay (cdc2/cyclinB); conditions: Table 1; read-out: cdk1/B IC50
Protocol: as §1

[5] = molecular target: cdk2/cyclinA (Homo sapiens, UniProt P24941); assay: Cyclin-dependent kinase assay (cdk2/cyclinA); conditions: Table 1
Protocol: as §1

[6] = molecular target: T2, mouse PDGF-β receptor tyrosine kinase (Mus musculus, UniProt P05622); assay: PDGF receptor tyrosine kinase assay; conditions: Table 3
T2 construct: amplify a fragment of DNA that codes for the intracellular tyrosine kinase domain; made in house; host or cells: SF9 insect cells (baculovirus)
Excerpt: as §2

[7] = molecular target: c-Src (Homo sapiens, UniProt P12931); assay: c-Src protein kinase assay; conditions: Table 5
Protocol: C-Src kinase was purified from baculovirus infected insect cell lysates using an antipeptide monoclonal antibody directed against the N-terminal amino acids (amino acids 2-17) of c-Src. The antibody, covalently linked to 0.65 µm latex beads, was added to a suspension of insect cell lysis buffer comprised of 150 mM NaCl, 50 mM Tris pH 7.5, 1 mM DTT, 1% NP-40,2 mM EGTA, 1 mM sodium vanadate, 1 mM PMSF, 1 µg/mL each of leupeptin, pepstatin, and aprotinin. Insect cell lysate containing c-Src protein was incubated with these beads for 3 to 4 hours at 4°C with rotation. At the end of the lysate incubation, the beads were rinsed three times in lysis buffer, resuspended in lysis buffer containing 10% glycerol, and frozen. These latex beads were thawed, rinsed three times in assay buffer (40 mM Tris, pH 7.5, […]) and suspended in the same buffer. In a Millipore 96-well plate with a 0.65 µm polyvinylidine membrane bottom were added the reaction components: 10 µL c-Src beads, 10 µL of 2.5 mg/mL poly GluTyr substrate, 5 µM ATP containing 0.2 µCi labeled ^32P-ATP, 5 µL DMSO containing inhibitors or as a solvent control, and buffer to make the final volume 125 µL. The reaction was started at room temperature by addition of the ATP and quenched 10 minutes later by the addition of 125 µL of 30% TCA, 0.1 M sodium pyrophosphate for 5 minutes on ice. […] The filters were then punched, counted in a liquid scintillation counter, and the data examined for inhibitory activity in comparison to a known inhibitor such as erbstatin. […]

T2 sequence (P05622 599-961 limits assumed): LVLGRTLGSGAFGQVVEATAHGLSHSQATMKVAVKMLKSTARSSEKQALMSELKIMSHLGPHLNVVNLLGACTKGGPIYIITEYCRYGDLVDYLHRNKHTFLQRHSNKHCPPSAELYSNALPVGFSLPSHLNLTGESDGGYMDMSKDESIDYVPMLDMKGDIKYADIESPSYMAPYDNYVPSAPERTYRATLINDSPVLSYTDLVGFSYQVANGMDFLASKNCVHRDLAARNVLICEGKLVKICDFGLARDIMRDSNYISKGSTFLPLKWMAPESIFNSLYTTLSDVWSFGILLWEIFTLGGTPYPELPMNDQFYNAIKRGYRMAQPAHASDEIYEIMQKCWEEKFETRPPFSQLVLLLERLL
Chain of cdc2/cyclinB (P06493 whole entry): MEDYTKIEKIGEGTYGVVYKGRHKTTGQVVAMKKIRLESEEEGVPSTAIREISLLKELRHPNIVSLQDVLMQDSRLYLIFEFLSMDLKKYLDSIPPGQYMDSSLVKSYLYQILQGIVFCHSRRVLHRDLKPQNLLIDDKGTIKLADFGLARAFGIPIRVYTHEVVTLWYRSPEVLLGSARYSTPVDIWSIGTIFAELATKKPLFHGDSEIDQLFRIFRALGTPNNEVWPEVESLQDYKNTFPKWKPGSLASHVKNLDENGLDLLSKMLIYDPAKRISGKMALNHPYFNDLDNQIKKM
Chain of cdc2/cyclinB (P14635 whole entry, further chain): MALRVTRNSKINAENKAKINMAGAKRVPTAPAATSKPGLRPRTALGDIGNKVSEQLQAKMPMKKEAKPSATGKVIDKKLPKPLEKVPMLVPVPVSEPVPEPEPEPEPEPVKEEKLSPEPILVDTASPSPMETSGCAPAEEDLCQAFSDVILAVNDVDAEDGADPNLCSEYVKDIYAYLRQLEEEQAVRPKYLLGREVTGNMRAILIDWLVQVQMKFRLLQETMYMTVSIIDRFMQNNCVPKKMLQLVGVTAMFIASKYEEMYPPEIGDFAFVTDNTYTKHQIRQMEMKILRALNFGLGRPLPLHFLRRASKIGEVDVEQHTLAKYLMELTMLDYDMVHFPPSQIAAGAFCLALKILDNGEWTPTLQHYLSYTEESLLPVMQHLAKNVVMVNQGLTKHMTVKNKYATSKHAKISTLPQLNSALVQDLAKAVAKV
Chain of c-Src (P12931 whole entry, the tested form may be a part): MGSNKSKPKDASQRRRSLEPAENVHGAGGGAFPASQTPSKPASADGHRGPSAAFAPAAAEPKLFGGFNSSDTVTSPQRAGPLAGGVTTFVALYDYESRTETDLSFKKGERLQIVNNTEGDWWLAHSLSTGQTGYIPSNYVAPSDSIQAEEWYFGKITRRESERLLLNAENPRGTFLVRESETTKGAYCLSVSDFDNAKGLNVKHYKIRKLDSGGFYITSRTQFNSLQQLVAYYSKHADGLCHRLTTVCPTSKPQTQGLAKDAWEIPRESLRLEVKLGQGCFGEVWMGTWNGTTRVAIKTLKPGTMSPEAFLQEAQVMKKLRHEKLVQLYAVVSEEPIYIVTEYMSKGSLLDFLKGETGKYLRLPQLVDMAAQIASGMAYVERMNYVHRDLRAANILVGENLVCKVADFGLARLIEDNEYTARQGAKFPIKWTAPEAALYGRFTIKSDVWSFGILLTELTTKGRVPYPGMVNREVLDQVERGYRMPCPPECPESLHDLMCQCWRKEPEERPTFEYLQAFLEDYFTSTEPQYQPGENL
T1 sequence (P11362 478-767 limits assumed): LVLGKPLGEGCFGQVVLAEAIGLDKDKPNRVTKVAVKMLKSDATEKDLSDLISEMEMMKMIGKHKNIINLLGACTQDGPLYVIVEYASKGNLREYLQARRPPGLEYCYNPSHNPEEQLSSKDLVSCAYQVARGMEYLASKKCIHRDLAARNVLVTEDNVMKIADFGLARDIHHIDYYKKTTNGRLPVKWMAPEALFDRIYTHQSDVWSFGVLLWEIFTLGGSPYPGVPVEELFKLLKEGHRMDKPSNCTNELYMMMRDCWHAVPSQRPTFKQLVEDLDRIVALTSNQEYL
Chain of cdk4/D (P11802 whole entry): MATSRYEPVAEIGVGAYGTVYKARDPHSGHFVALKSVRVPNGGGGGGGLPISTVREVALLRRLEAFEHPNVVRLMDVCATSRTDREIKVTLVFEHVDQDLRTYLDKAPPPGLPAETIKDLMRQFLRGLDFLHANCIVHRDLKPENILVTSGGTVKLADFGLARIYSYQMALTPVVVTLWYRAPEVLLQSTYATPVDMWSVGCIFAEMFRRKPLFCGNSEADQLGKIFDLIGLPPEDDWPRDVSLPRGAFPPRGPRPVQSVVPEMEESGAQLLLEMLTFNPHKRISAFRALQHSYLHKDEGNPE
Chain of cdk4/D (P24385 whole entry, further chain): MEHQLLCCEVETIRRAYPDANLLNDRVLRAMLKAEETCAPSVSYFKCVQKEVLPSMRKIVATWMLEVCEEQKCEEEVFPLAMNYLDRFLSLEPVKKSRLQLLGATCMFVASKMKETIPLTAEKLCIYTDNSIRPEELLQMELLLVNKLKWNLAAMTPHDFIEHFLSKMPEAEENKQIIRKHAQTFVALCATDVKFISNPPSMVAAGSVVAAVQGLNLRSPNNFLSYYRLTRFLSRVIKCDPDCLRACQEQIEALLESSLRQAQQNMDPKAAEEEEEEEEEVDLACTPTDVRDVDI

## CCn1c(=O)ccc2cnc(Nc3ccccc3)nc21 [Example 18, 8-Ethyl-2-phenylamino-8H-pyrido[2,3-d]pyrimidin-7-one]
[1]
  IC50: 0.41 µM
[2]
  IC50: 0.752 µM
[3]
  IC50: 3.3 µM
[4]
  IC50: 1.02 µM
[5]
  IC50: 0.129 µM
[6]
  IC50: 1.78 µM

## CCCCn1c(=O)ccc2cnc(Nc3ccccc3)nc21 [Example 40, 8-Butyl-2-phenylamino-8H-pyrido[2,3-d]pyrimidin-7-one]
[1]
  IC50: 0.058 µM
[2]
  IC50: 1.49 µM
[4]
  IC50: 0.205 µM
[7]
  IC50: 19.5 µM
[5]
  IC50: 0.037 µM

## CCCn1c(=O)ccc2cnc(Nc3ccccc3)nc21 [Example 41, 2-Phenylamino-8-propyl-8H-pyrido[2,3-d]pyrimidin-7-one]
[1]
  IC50: 0.112 µM
[2]
  IC50: 0.55 µM
[3]
  IC50: 6.6 µM
[4]
  IC50: 0.299 µM
[5]
  IC50: 0.05 µM
[6]
  IC50: 4.96 µM

## CC(C)Cn1c(=O)ccc2cnc(Nc3ccccc3)nc21 [Example 42, 8-Isobutyl-2-phenylamino-8H-pyrido[2,3-d]pyrimidin-7-one]
[2]
  IC50: 0.4 µM
[3]
  IC50: 4.06 µM
[6]
  IC50: 3.69 µM

## CCn1c(=O)ccc2cnc(Nc3ccncc3)nc21 [Example 50, 8-Ethyl-2-(pyridin-4-ylamino)-8H-pyrido[2,3-d]pyrimidin-7-one]
[2]
  IC50: 2 µM
[7]
  IC50: 15 µM

## CCN(CC)CCOc1ccc(Nc2ncc3ccc(=O)n(CC)c3n2)cc1 [Example 52, 2-[4-(2-Diethylaminoethoxy)-phenylamino]-8-ethyl-8H-pyrido[2,3-d]pyrimidin-7-one]
[1]
  IC50: 2.34 µM
[2]
  IC50: 0.16 µM
[4]
  IC50: 2.66 µM
[7]
  IC50: 1.03 µM
[5]
  IC50: 0.75 µM

## CCN(CC)CCOc1ccc(Nc2ncc3ccc(=O)n(C(C)C)c3n2)cc1 [Example 59, 2-[4-(2-Diethylaminoethoxy)-phenylamino]-8-isopropyl-8H-pyrido[2,3-d]pyrimidin-7-one]
[1]
  IC50: 0.8 µM
[2]
  IC50: 0.045 µM
[4]
  IC50: 1.24 µM
[7]
  IC50: 4.43 µM
[5]
  IC50: 0.08 µM

## Cn1c(=O)ccc2cnc(Nc3ccccc3)nc21 [Example 61, 8-Methyl-2-phenylamino-8H-pyrido[2,3-d]pyrimidin-7-one]
[1]
  IC50: 0.86 µM
[2]
  IC50: 6.9 µM
[4]
  IC50: 1.76 µM
[5]
  IC50: 0.49 µM

## CCC(CC)n1c(=O)ccc2cnc(Nc3ccc(N4CCN(C)CC4)cc3)nc21 [Example 77, 8-(1-Ethylpropyl)-2-[4-(4-methylpiperazin-1-yl)-phenylamino]-8H-pyrido[2,3-d]pyrimidin-7-one]
[1]
  IC50: 0.068 µM
[2]
  IC50: 0.014 µM
[4]
  IC50: 0.141 µM
[5]
  IC50: 0.028 µM

## CCN(CC)c1ccc(Nc2ncc3ccc(=O)n(CC)c3n2)cc1 [Example 78, 2-(4-Diethylamino-phenylamino)-8-ethyl-8H-pyrido[2,3-d]pyrimidin-7-one]
[1]
  IC50: 2.94 µM
[2]
  IC50: 1.3 µM
[4]
  IC50: 0.74 µM
[5]
  IC50: 2.24 µM

## CCn1c(=O)ccc2cnc(Nc3ccc(F)cc3)nc21 [Example 88, 8-Ethyl-2-(4-fluorophenylamino)-8H-pyrido[2,3-d]pyrimidin-7-one]
[1]
  IC50: 0.28 µM
[2]
  IC50: 1.3 µM
[4]
  IC50: 2.07 µM
[5]
  IC50: 0.44 µM

## CCn1c(=O)ccc2cnc(Nc3ccc(N(C)C)cc3)nc21 [Example 93, 2-(4-Dimethylamino-phenylamino)-8-ethyl-8H-pyrido[2,3-d]pyrimidin-7-one]
[1]
  IC50: 1.77 µM
[2]
  IC50: 0.38 µM
[4]
  IC50: 0.78 µM
[5]
  IC50: 0.28 µM

## O=c1ccc2cnc(Nc3ccccc3)nc2n1-c1ccccc1 [Example 101, 2-Phenylamino-8-phenyl-8H-pyrido[2,3-d]pyrimidin-7-one]
[2]
  IC50: 1.7 µM
[7]
  IC50: 21.2 µM

## O=c1ccc2cnc(Nc3ccccc3)nc2n1C1CCCC1 [Example 108, 8-Cyclopentyl-2-phenylamino-8H-pyrido[2,3-d]pyrimidin-7-one]
[1]
  IC50: 0.11 µM
[2]
  IC50: 0.21 µM
[3]
  IC50: 2.98 µM
[4]
  IC50: 0.19 µM
[5]
  IC50: 0.012 µM
[6]
  IC50: 4.18 µM

## CN1CCN(c2ccc(Nc3ncc4ccc(=O)n(CCCOCc5ccccc5)c4n3)cc2)CC1 [Example 115, 8-(3-Benzyloxy-propyl)-2-[4-(4-methyl-piperazin-1-yl)-phenylamino]-8H-pyrido[2,3-d]pyrimidin-7-one]
[7]
  IC50: 0.545 µM

## O=c1ccc2cnc(Nc3ccccc3)nc2n1C1CCCCC1 [Example 131, 8-Cyclohexyl-2-phenylamino-8H-pyrido[2,3-d]pyrimidin-7-one]
[1]
  IC50: 0.125 µM
[2]
  IC50: 0.047 µM
[3]
  IC50: 12.4 µM
[4]
  IC50: 0.749 µM
[5]
  IC50: 0.079 µM
[6]
  IC50: 16.1 µM

## CCN(CC)CCOc1ccc(Nc2ncc3ccc(=O)n(C4CCCCC4)c3n2)cc1C [Example 150, 8-Cyclohexyl-2-[4-(2-diethylamino-ethoxy)-3-methyl-phenylamino]-8H-pyrido[2,3-d]pyrimidin-7-one]
[3]
  IC50: 0.099 µM
[6]
  IC50: 0.099 µM

## O=c1ccc2cnc(Nc3ccccc3)nc2n1C1CCCCCC1 [Example 155, 8-Cycloheptyl-2-phenylamino-8H-pyrido[2,3-d]pyrimidin-7-one]
[1]
  IC50: 0.024 µM
[2]
  IC50: 0.182 µM
[4]
  IC50: 0.065 µM
[5]
  IC50: 0.009 µM

## O=c1ccc2cnc(Nc3ccc(-n4cccn4)cc3)nc2n1C1CCCCC1 [Example 162, 8-Cyclohexyl-2-(4-pyrazol-1-yl-phenylamino)-8H-pyrido[2,3-d]pyrimidin-7-one]
[3]
  IC50: 19.7 µM
[6]
  IC50: 17.1 µM

## CC1CC(C)CN(c2ccc(Nc3ncc4ccc(=O)n(C5CCCCC5)c4n3)cc2)C1 (centres unmarked) [Example 167, 8-Cyclohexyl-2-[4-(3,5-dimethyl-piperidin-1-yl)-phenylamino]-8H-pyrido[2,3-d]pyrimidin-7-one]
[3]
  IC50: 20.6 µM
[6]
  IC50: 33.1 µM

## O=c1ccc2cnc(Nc3ccccc3)nc2n1C1CC2CCC1C2 (centres unmarked) [Example 180, 8-Bicyclo[2.2.1]hept-2-yl-2-phenylamino-8H-pyrido[2,3-d]pyrimidin-7-one]
[1]
  IC50: 0.173 µM
[2]
  IC50: 0.038 µM
[3]
  IC50: 12 µM
[4]
  IC50: 0.503 µM
[5]
  IC50: 0.075 µM
[6]
  IC50: 27.8 µM

## O=c1ccc2cnc(Nc3ccc(N4CCC(CCO)CC4)cc3)nc2n1C1CCCC1 [Example 196, 8-Cyclopentyl-2-{4-[4-(2-hydroxy-ethyl)-piperidin-1-yl]-phenylamino}-8H-pyrido[2,3-d]pyrimidin-7-one]
[3]
  IC50: 1.45 µM
[6]
  IC50: 1.06 µM

## O=c1ccc2cnc(Nc3ccc(N4CCC(O)CC4)cc3)nc2n1C1CCCC1 [Example 198, 8-Cyclopentyl-2-[4-(4-hydroxy-piperidin-1-yl)-phenylamino]-8H-pyrido[2,3-d]pyrimidin-7-one]
[7]
  IC50: 1.1 µM
